Laboratory results as given in paper PMC10850954, “HDAC6/aggresome processing pathway importance for inflammasome formation is context-dependent” (The Journal of Biological Chemistry, 2024).
pIC50: −log10 of the molar value.

What was measured:
Test in all cases: In vitro enzymatic assay with purified HDACs
Format in all cases: biochemical
HDAC1 = HDAC1 (Homo sapiens, UniProt Q13547)
Text: (§1) To extend these observations in other cell settings, we next made use of a novel HDAC6 proteolysis targeting chimera (PROTAC) degrader, XY-07-35 ([19]). Treatment of cells with XY-07-35 leads to recruitment of the E3 ligase cereblon (CRBN) to HDAC6, ubiquitination, and subsequent proteasomal degradation of HDAC6 (Fig. 3A).
(§2) Figure 3 Effect of […] mediated HDAC6 degradation on NLRP3 inflammasome activation in PBMCs.A, schematic of the mode of action of an HDAC6 degrader. The PROTAC engages both HDAC6 and the E3 ligase cereblon (CRBN), which then leads to ubiquitination and degradation of HDAC6. B, chemical structure of the HDAC6 degrader XY-07-35 and of the negative control XY-07-191 which no longer recruits CRBN. C, in vitro enzymatic assay of compound XY-07-35 on the activity of different HDACs. IC50 for each enzyme is shown. D, XY-07-35 mediated HDAC6 degradation in PBMCs. PBMCs (without or with LPS priming for 4 h) were treated with the indicated compounds and HDAC6 levels were detected by immunoblotting with an anti-HDAC6 antibody. Detection of actin was used as a control for loading. CGP, CGP084892 (Caspase-1 inhibitor); AFN700 is an inhibitor of the NF-kB pathway (IKK inhibitor). E, HDAC6 degradation impact on IL-1β release in PBMCs following MSU 200 μg/ml (5 h), nigericin 2 μM (2 h) or ATP 3 mM (0.5 h) treatment. Cells were first primed with 0.2 ng/ml LPS for 4 h at 37 °C, then treated with MSU, nigericin, and ATP as indicated. The graphs below show the results of three independent experiments using the inducers as indicated. NP3-948 is an inhibitor of the NLRP3 inflammasome. TEXT PRINTED IN THE PICTURE: (C) XY-07-035: Compound IC50 (μM): 1.04 (Target: HDAC1); Compound IC50 (μM): 2.47 (Target: HDAC2); Compound IC50 (μM): 1.44 (Target: HDAC3); Compound IC50 (μM): 5.75 (Target: HDAC5); Compound IC50 (μM): 0.0485 (Target: HDAC6); Compound IC50 (μM): 0.621 (Target: HDAC8) DOUBTS OF THE COPYIST ABOUT THIS PICTURE: XY-07-035, HDAC4, HDAC7 and HDAC9: the table prints only dashes (--), no value, so these rows are left out

HDAC2 = HDAC2 (Homo sapiens, UniProt Q92769)
HDAC2, sequence (Q92769 whole entry, species assumed): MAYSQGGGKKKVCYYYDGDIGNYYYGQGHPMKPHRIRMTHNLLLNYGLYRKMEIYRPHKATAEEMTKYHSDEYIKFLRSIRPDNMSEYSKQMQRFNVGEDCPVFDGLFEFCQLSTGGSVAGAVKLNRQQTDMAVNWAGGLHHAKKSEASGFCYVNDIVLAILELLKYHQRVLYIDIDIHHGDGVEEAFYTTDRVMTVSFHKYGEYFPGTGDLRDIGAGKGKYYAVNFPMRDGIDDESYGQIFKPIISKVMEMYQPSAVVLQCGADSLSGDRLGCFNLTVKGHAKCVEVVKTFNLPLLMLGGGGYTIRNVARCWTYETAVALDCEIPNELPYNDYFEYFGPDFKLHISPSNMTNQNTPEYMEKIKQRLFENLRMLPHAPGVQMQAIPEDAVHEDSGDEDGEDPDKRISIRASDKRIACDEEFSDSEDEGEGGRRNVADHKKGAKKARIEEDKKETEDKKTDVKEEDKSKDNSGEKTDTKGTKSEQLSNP
Text: as §1, §2

other HDACs = other HDACs (than HDAC6 and HDAC8)
Text: as §1, §2

HDAC3 = HDAC3 (Homo sapiens, UniProt O15379)
HDAC3, sequence (O15379 whole entry, species assumed): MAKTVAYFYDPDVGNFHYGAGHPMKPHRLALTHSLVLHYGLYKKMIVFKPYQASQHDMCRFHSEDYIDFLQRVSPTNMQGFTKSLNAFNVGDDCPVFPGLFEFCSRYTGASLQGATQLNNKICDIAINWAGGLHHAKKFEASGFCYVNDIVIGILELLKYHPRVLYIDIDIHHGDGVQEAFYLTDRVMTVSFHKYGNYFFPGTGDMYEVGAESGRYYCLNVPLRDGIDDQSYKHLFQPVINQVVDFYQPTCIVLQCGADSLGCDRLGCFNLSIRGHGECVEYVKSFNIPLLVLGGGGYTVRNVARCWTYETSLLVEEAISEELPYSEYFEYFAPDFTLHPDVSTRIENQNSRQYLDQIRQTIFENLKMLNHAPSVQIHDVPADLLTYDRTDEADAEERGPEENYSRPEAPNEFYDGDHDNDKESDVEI
HDAC3, sequence (Q9Y618 395-489 partner limits assumed, species assumed): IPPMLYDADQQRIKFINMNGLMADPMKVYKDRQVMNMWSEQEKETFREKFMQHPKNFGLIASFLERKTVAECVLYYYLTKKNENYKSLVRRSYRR
Text: as §1, §2

HDAC5 = HDAC5 (Homo sapiens, UniProt Q9UQL6)
HDAC5, sequence (Q9UQL6 whole entry, species assumed): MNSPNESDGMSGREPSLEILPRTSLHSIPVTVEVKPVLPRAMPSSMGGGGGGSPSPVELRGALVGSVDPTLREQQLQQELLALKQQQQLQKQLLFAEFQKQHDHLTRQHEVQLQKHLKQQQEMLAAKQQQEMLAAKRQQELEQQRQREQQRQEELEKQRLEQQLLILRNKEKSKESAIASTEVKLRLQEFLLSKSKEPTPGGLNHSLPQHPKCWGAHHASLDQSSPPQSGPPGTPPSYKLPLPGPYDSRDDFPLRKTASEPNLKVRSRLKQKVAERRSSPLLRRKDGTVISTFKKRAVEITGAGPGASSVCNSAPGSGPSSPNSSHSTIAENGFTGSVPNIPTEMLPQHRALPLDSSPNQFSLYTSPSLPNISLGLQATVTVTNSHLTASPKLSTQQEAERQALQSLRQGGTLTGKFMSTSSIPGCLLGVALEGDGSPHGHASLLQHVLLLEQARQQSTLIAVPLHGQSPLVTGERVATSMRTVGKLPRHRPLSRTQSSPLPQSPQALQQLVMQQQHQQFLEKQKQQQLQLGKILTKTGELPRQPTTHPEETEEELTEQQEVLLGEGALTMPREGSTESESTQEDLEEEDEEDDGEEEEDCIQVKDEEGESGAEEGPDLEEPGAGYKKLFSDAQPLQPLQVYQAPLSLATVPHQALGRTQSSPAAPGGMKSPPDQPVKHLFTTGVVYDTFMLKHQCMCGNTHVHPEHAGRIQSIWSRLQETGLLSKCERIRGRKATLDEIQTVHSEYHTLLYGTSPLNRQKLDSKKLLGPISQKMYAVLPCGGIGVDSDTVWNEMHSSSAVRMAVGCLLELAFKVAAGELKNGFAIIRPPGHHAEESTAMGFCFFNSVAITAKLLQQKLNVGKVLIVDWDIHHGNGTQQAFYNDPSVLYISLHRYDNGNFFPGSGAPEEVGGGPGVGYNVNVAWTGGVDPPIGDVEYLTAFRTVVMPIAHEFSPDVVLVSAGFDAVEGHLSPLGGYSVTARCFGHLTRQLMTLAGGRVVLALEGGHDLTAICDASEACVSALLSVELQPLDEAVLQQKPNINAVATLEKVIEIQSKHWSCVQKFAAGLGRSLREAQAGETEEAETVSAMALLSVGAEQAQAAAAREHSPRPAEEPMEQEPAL
Text: as §1, §2

HDAC8 = biological target: T1, HDAC8 (Homo sapiens, UniProt Q9BY41)
T1 sequence (Q9BY41 1-377): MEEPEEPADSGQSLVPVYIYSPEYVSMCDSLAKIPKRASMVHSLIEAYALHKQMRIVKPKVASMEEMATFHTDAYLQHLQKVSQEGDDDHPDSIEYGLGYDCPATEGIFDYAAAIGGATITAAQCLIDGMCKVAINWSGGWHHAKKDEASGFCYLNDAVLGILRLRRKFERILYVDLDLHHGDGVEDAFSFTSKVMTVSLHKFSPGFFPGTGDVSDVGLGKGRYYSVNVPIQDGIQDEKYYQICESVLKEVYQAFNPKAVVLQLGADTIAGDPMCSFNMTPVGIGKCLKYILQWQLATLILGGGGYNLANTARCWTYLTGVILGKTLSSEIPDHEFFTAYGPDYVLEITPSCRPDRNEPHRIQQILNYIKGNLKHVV
Text: as §1, §2

HDAC6 = biological target: T2, HDAC6 (Homo sapiens, UniProt Q9UBN7)
T2 sequence (Q9UBN7 1-1215): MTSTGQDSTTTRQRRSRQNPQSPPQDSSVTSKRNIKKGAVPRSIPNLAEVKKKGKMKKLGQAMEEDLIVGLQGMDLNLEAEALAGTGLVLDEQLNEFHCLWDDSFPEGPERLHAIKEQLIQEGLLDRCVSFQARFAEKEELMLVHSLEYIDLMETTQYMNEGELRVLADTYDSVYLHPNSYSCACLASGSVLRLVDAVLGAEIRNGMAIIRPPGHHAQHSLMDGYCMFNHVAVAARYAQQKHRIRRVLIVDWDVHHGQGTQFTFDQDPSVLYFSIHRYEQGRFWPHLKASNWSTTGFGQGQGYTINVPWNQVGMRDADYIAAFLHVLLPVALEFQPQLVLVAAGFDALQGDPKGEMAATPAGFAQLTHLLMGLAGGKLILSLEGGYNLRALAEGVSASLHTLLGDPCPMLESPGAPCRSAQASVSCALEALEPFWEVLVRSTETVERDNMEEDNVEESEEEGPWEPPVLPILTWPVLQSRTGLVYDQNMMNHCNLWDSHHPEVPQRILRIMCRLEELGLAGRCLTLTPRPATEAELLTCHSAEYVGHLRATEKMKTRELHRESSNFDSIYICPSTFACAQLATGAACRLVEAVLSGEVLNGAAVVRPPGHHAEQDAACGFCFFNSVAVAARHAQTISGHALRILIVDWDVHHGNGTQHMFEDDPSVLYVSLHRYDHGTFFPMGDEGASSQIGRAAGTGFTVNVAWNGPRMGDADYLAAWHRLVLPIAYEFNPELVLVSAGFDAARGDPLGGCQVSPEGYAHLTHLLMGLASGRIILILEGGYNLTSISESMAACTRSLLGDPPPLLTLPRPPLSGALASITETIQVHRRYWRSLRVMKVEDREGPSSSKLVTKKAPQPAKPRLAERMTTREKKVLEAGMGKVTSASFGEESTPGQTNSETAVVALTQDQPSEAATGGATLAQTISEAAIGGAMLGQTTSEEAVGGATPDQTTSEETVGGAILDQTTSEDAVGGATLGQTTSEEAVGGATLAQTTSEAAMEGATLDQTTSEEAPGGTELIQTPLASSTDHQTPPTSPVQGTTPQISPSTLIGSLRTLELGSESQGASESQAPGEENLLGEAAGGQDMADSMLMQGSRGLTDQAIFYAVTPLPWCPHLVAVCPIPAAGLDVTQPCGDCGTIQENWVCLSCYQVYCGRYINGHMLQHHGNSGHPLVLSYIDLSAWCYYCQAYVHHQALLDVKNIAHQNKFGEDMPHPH
Text: as §1, §2

HDAC1, sequence (Q13547 whole entry, species assumed): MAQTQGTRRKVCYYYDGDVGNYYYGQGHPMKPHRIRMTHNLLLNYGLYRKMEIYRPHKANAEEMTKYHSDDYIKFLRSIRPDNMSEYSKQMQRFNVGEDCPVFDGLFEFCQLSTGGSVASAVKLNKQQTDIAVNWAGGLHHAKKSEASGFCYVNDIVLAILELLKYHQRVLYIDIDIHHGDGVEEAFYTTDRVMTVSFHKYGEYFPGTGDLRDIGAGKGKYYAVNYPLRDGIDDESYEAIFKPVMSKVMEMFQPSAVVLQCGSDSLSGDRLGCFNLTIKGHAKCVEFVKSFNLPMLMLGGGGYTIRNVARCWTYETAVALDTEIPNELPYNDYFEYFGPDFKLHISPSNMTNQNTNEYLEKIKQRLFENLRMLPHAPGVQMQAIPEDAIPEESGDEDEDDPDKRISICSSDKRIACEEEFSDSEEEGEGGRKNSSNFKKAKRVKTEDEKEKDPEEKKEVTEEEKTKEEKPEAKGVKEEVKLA

**Q.** Which results are given for CN(C(=O)CCCNc1cccc2c1C(=O)N(C1CCC(=O)NC1=O)C2=O)c1ccc(NC(=O)CCCCCCC(=O)NO)cc1 (stereo not shown) [XY-07-35]?
**A.** pIC50 (HDAC1): 5.98; pIC50 (HDAC2): 5.61; pIC50 (other HDACs): 5.24 to 5.98; pIC50 (HDAC3): 5.84; pIC50 (HDAC5): 5.24; pIC50 (HDAC8): 6.21; pIC50 (HDAC6): 7.31
